“Also recorded” adds a separate entry of the source.
Legend:
[1] = test system: young male Wistar rats subjected to 90 min of MCAO (ischemic stroke); test: Experiment 1: acute stroke outcome after 90 min MCAO, intracarotid BMX-001 then subcutaneous for 7 days; format: in vivo, rat
Description: (§1) The rats were fasted overnight for glucose control. On the surgery day, they were anesthetized with 5% isoflurane in 30% oxygen balanced with nitrogen. The trachea was orally intubated, and both lungs were mechanically ventilated to maintain normocapnia. Isoflurane was reduced to 1.5% during the surgical procedure. A 22-gauge needle thermistor was percutaneously inserted beneath the temporalis muscle adjacent to the skull. The pericranial temperature was maintained at 37.0° C.±0.2° C. by a surface heat lamp. The tail artery was cannulated with PE 50 tubing (BD Intramedic™ Polyethylene Tubing, Sparks, MD, USA), and arterial blood pressure was continuously monitored. 50 IU of heparin was given via arterial line to prevent intra-arterial thrombosis. Arterial blood samples were collected pre, during, and after ischemia for blood gas, glucose, and hematocrit measurements.
(§2) Ischemic stroke was induced by transiently occluding the middle cerebral artery (MCAO) as previously reported.^23,24 Briefly, a midline cervical incision was made and the right common carotid artery […] was identified. The external and internal carotid arteries were dissected. […] The internal carotid artery (ICA) was dissected distally until the origin of the pterygopalatine artery was visualized. After surgical preparation, a 10 min interval was allowed for physiologic stabilization. […] The common carotid artery was re-opened, and a timer was started as the onset of cerebral ischemia.
(§3) After 90 min of MCAO, the filament was removed and a PE-10 tube (BD Intramedic™ Polyethylene Tubing, Sparks, MD, USA) was inserted into the ICA beyond the origin of the pterygopalatine artery. The vehicle or BMX-001 (30-50 μg/kg) solution (1 μl/g for both solutions, 250 μl for the 250 g rat) was slowly infused for 5 minutes via syringe pump. At the completion of intra-carotid infusion, the PE tube was removed and the ECA stump was permanently ligated. The tail artery catheter was removed and both the neck incision and tail incision were infiltrated with bupivacaine and closed with suture. Isoflurane was discontinued. Rats were disconnected from the ventilator when they attained spontaneous respiration and kept in a recovery cage. The tracheas were extubated after recovery of the righting reflex. They were in an O2 enriched environment (30% O2) for 1 h and then returned to the home cage.
(§4) Post-stroke neurologic deficits were assessed at day 7 and 28 using a standardized neurological scoring system.^27,28 General status, simple motor deficit, complex motor deficit, and sensory deficit were evaluated, including the ability of walking on a beam and climbing on the vertical screen. The total score each animal received was the sum of all four individual scores (0-48, 0=normal and 48=the worst score).
(§5) Upon the completion of functional tests, the animals were weighed, anesthetized with isoflurane, and decapitated. The brains were harvested, frozen at −20° C. in 2-methylbutane on dry ice, and stored in a −80° C. freezer. Serial quadruplicate 20-μm-thick coronal sections were cut using a Leica cryostat and mounted on the slides at 720-μm interval over the rostral-caudal extent of the brain. The sections were dried on a slide heater at 36° C., and stained with hematoxylin and eosin. A section from each […] interval was digitized with a video camera controlled by an image analyzer (MCID, the MicroComputer Imaging Device, Imaging Research Inc, St. Catharines, Ontario, Canada). […] With the observer blinded to the experimental condition, the following regions of interest (ROI) were outlined individually using an operator-controlled cursor, including non-infarcted ipsilateral cerebral cortex, non-infarcted ipsilateral subcortex, contralateral cerebral cortex, and contralateral subcortex. The area in each ROI (mm^2) was determined by automated counting of calibrated pixels and the volume (mm^3) was computed by the known interval between sections over the rostral-caudal extent of brain. […]

[2] = test system: young female Wistar rats subjected to 90 min of MCAO (ischemic stroke); test: Experiment 2: long-term stroke outcome in young female rats; format: in vivo, rat; details: for Neurologic score: median±IQR, p=0.04 vs vehicle
Description: as §1, §2, §3, §4
Upon the completion of functional tests, the animals were weighed, anesthetized with isoflurane, and decapitated. The brains were harvested, frozen at −20° C. in 2-methylbutane on dry ice, and stored in a −80° C. freezer. Serial quadruplicate 20-μm-thick coronal sections were cut using a Leica cryostat and mounted on the slides at 720-μm interval over the rostral-caudal extent of the brain. The sections were dried on a slide heater at 36° C., and stained with hematoxylin and eosin. […] The area in each ROI (mm^2) was determined by automated counting of calibrated pixels and the volume (mm^3) was computed by the known interval between sections over the rostral-caudal extent of brain. […]

[3] = test system: young male spontaneously hypertensive rats (SHR) subjected to 90 min of MCAO; test: Experiment 4: stroke outcome in young spontaneously hypertensive rats; format: in vivo, rat; details: for Neurologic score: median±IQR
Description: as §1, §2, §3, §4, §5

[4] = test system: blood brain barrier; test: Experiment 7: blood brain barrier permeability after intracarotid infusion (Evans blue content); details: non-stroke rats, vs vehicle
Description: 30 μg/kg of BMX-001 (n=4), or same amount of saline (n=4) or mannitol (n=4) was given to normal male Wistar rats through the carotid artery. The rats received 100 μl 2% Evans blue intravenous infusion 30 min later and then intracardially perfused using 100 ml normal saline at 30 min following infusion. Brains were harvested and the Evans blue content was measured spectrophotometrically.

[5] = Experiment 8: interaction of BMX-001 with t-PA (blood clot dissolution); design: species or system rat; details: blood clot dissolution, t-PA vs t-PA plus BMX-001
Description: Fresh arterial blood samples were collected from young male rats and distributed into 21 pre-weighed centrifuge tubes. After sitting at 37° C. for 3 hours, the blood clots were formed. The supernatant was removed from these tubes and then the tubes with blood clots were weighed. The weight of the blood clot was calculated (=the tube with blood clot-pre-weighed tube). Then, 1 ml saline, t-PA (1 mg/ml) or t-PA (1 mg/ml) plus BMX-001 (50 μg/ml) were added (n=7 for each group) and tubes placed in 37° C. dry incubator for 3 hours. The liquids were then removed from the tubes. The tubes with remaining blood clots were weighed again. The percentage of blood clot dissolved by t-PA was calculated.

For `CCCCOCC[n+]1ccccc1C1=C2C=CC3=[N+]2[Mn]24[n]5c1ccc5C(c1cccc[n+]1CCOCCCC)=C1C=CC(=[N+]12)C(c1cccc[n+]1CCOCCCC)=c1ccc([n]14)=C3c1cccc[n+]1CCOCCCC` [BMX-001, MnTnBuOE-2-PyP^5+], the “Perioperative blood pressure (FIG. 1, Panel A), in words” value ([1]; 5 min vs 45 min post-treatment) was “lower blood pressure”, the Perioperative blood pressure ([1]; 10 minutes post-ischemia, after 30 μg/kg intracarotid BMX-001, p=0.04 vs vehicle) was 75±4 mmHg and the Body weight ([1]; 24 hours post-stroke) was 252±9 grams. The “Post-stroke body weight recovery (FIG. 1, Panel B), in words” value ([1]; body weight at 7 Days vs 24 hours, p=0.02) was “promoted post-stroke body weight recovery”, the “Infarct volume (FIG. 1, Panel D), in words” value ([1]; day 7 post-stroke) was “significantly improved” and the “Neurologic scores (FIG. 1, Panel C), in words” value ([1]; day 7 post-stroke) was “significantly improved”. It also gave a Body weight ([1]; day 7 post-stroke, p=0.02 vs 24 hours) of 279±9 grams, a Subcortex infarct ([1]; day 7 post-stroke, p=0.02 vs vehicle) of 38.964 ±8.892 mm^3 and a Total infarct ([1]; day 7 post-stroke, p=0.04 vs vehicle) of 89.097±48.424 mm^3. It also gave a Cortex infarct ([1]; day 7 post-stroke, p=0.07 vs vehicle) of 49.864±42.899 mm^3, a Neurologic score ([1]; post-stroke day 7, score 0-48 (0=normal), median±IQR, p<0.01 vs vehicle) of 4±3.5 and a Neurologic score ([2]; 7 days post-stroke) of 11±7. The Neurologic score ([2]; 28 days post-stroke) was 7±6, the Infarct volume ([2]; 28 days post-stroke, p=0.38 vs vehicle) was 157.378 ±63.699 mm^3 and the “Neurologic score (FIG. 2, Panel A), in words” value ([2]; day 7 and day 28 compared to the vehicle group) was “better neurologic score”. The “Infarct volumes (FIG. 2, Panel B), in words” value ([2]; day 28, no intragroup difference was detected) was “smaller”, the MAP ([3]; 10 minutes post-stroke, SHR rats) was 83 ± 11 mmHg and the “Infarct volume (FIG. 4, Panel C), in words” value ([3]; 28 days) was “no intra-group difference”. For the same compound, the Subcortex infarct volume ([3]; 28 days, p=0.14) was 51±23 mm^3, the Total infarct volume ([3]; 28 days, p=0.21) was 179±51 mm^3 and the Cortex infarct volume ([3]; 28 days, p=0.37) was 128±37 mm^3. For the same compound, the Neurologic score ([3]; day 7, p=0.05 vs vehicle) was 14±8, the Neurologic score ([3]; day 28, p=0.018 vs vehicle) was 9.5±6.25 and the “Neurological deficits (FIG. 4, Panel B), in words” value ([3]; day 28 post-stroke) was “significantly improved”. For the same compound, the “Rats survived for 28 days” value ([3]; of n=15, three BMX-001 rats died at 8, 9 and 10 days after stroke) was 12, the “Evans blue content in brain / blood brain barrier permeability, in words” value [4] was “only somewhat higher Evans blue content; also recorded: did not affect the BBB” and the “Interaction of BMX-001 with t-PA, in words” value [5] was “does not React with t-PA”.
